Results from paper PMC5653858, “A single extracellular amino acid in Free Fatty Acid Receptor 2 defines antagonist species selectivity and G protein selection bias” (Scientific Reports, 2017).
Where a chain is given by its changes, count along the chain named.

Key:
Lys^65Glu hFFA2 [1] = biological target: T1, Lys^65Glu hFFA2 (Homo sapiens, UniProt O15552, K65E); assay: HTRF cAMP inhibition assay, Lys65Glu hFFA2; type: cell-based; conditions: inhibition of 1 μM forskolin-induced cAMP, K65E hFFA2
T1 construct: NanoLuc Luciferase (N); eYFP; expressed in transfected cells; host or cells: Flp-In T-REx HEK293, doxycycline-induced
T1 sequence (O15552 1-330 K65E): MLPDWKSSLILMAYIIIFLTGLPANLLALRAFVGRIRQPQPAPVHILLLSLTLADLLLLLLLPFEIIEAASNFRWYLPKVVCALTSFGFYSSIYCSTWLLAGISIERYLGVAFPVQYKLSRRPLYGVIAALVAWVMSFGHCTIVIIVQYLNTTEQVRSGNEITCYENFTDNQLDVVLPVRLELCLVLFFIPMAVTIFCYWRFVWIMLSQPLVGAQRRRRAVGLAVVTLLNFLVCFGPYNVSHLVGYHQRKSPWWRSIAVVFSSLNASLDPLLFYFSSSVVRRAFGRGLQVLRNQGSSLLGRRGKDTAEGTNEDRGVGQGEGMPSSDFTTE
Procedure: (§1) All cAMP and inositol monophosphate experiments were performed using Flp-In T-REx HEK293 cells induced to express the receptor of interest. Experiments were carried out using respective homogenous time-resolved FRET-based detection kits (CisBio Bioassays; CisBio, Codolet, France) according to the manufacturer’s protocol. For the cAMP inhibition assay cells were plated at 2000 cells/well in low-volume 384-well plates. The ability of agonists to inhibit 1 μM forskolin-induced cAMP production was assessed following a co-incubation for 30 min with agonist compounds. For the inositol monophosphate accumulation assay cells were plated at 7500 cells/well in low-volume 384-well plates and incubated for 2 h at 37 °C with test compounds. To assess ability of antagonists to inhibit agonist responses, cells were pre-incubated with antagonist compounds for 30 min at 37 °C prior to addition of an EC80 concentration of agonist. Respective reactions were stopped according to the manufacturer’s instructions and the output was measured by with a PHERAstar FS plate reader (BMGLabtech, Aylesbury, UK).

Lys^65Arg hFFA2 [2] = biological target: T2, Lys^65Arg hFFA2 (Homo sapiens, UniProt O15552, K65R); assay: inositol monophosphate accumulation assay, Lys65Arg hFFA2; type: cell-based
T2 construct: NanoLuc Luciferase (N); eYFP; expressed in transfected cells; host or cells: Flp-In T-REx HEK293, doxycycline-induced
T2 sequence (O15552 1-330 K65R): T1 sequence (O15552 1-330 K65E) with E65R
Procedure: as §1

Lys^65Arg hFFA2 [3] = biological target: T2, Lys^65Arg hFFA2; assay: [35S]GTPγS incorporation assay, Lys65Arg hFFA2; type: biochemical; conditions: membranes
Procedure: (§2) Initially, 5 μg of generated membrane protein was pre-incubated for 15 min at 25 °C in assay buffer (50 mM Tris-HCl, 10 mM MgCl2; 100 mM NaCl; 1 mM EDTA; 1 μM GDP; 0.1% fatty acid-free bovine serum albumin; pH 7.4) containing the indicated ligand concentrations. […] Unbound radioligand was removed from filters by three washes with ice-cold wash buffer (50 mM Tris-HCl, 10 mM MgCl2; pH 7.4) and filters were dried for 2–3 h at room temperature. Dried filters were added to 3 mL of Ultima Gold^TM XR (PerkinElmer Life Sciences, Beaconsfield, UK) and [^35S]GTPγS binding was determined by liquid scintillation spectrometry.

hFFA2 [4] = biological target: T3, hFFA2 (Homo sapiens, UniProt O15552); assay: HTRF cAMP inhibition assay, wild type hFFA2; type: cell-based; parameters: expressed in transfected cells; conditions: inhibition of 1 μM forskolin-induced cAMP
T3 sequence (O15552 1-330): T1 sequence (O15552 1-330 K65E) with E65K
Procedure: as §1

Lys^65Ala hFFA2 [5] = biological target: T4, Lys^65Ala hFFA2 (Homo sapiens, UniProt O15552, K65A); assay: inositol monophosphate accumulation assay, Lys65Ala hFFA2; type: cell-based; parameters: NanoLuc Luciferase (N); eYFP; expressed in transfected cells; host or cells: Flp-In T-REx HEK293, doxycycline-induced
T4 sequence (O15552 1-330 K65A): T1 sequence (O15552 1-330 K65E) with E65A
Procedure: as §1

Lys^65Ala hFFA2 [6] = biological target: T4, Lys^65Ala hFFA2; assay: [35S]GTPγS incorporation assay, Lys65Ala hFFA2; type: biochemical; parameters: NanoLuc Luciferase (N); eYFP; expressed in transfected cells; host or cells: Flp-In T-REx HEK293, doxycycline-induced; conditions: membranes
Procedure: as §2

Lys^65Arg hFFA2 [7] = biological target: T2, Lys^65Arg hFFA2; assay: HTRF cAMP inhibition assay, Lys65Arg hFFA2; type: cell-based; conditions: inhibition of 1 μM forskolin-induced cAMP
Procedure: as §1

Lys^65Glu hFFA2 [8] = biological target: T1, Lys^65Glu hFFA2; assay: [35S]GTPγS incorporation assay, Lys65Glu hFFA2; type: biochemical; conditions: membranes
Procedure: as §2

hFFA2 [9] = biological target: T3, hFFA2; assay: inositol monophosphate accumulation assay, wild type hFFA2; type: cell-based; parameters: expressed in transfected cells; conditions: wild type hFFA2
Procedure: as §1

Lys^65Glu hFFA2 [10] = biological target: T1, Lys^65Glu hFFA2; assay: inositol monophosphate accumulation assay, Lys65Glu hFFA2; type: cell-based
Procedure: as §1

Lys^65Ala hFFA2 [11] = biological target: T4, Lys^65Ala hFFA2; assay: HTRF cAMP inhibition assay, Lys65Ala hFFA2; type: cell-based; parameters: NanoLuc Luciferase (N); eYFP; expressed in transfected cells; host or cells: Flp-In T-REx HEK293, doxycycline-induced; conditions: inhibition of 1 μM forskolin-induced cAMP, K65A hFFA2
Procedure: as §1

hFFA2 [12] = biological target: T3, hFFA2; assay: [35S]GTPγS incorporation assay, wild type hFFA2; type: biochemical; parameters: HA-tag (C); expressed in transfected cells; host or cells: HEK293, parental and CRISPR/Cas9 G protein-deleted lines, transient transfection; conditions: membranes
Procedure: as §2

## Cc1nc(NC(=N)N)sc1-c1cccc(NC(=O)c2ccc(F)cc2)c1 [AZ1729, N-[3-(2-carbamimidamido-4-methyl-1,3-thiazol-5-yl)phenyl]-4-fluoro benzamide]
Lys^65Glu hFFA2 [1]
  pEC50 cAMP, K65E: 6.45 ± 0.15
Lys^65Arg hFFA2 [2]
  inositol monophosphate production via Lys65Arg hFFA2: unable to promote inositol monophosphate production
Lys^65Arg hFFA2 [3]
  pEC50 GTPγS, K65R: 6.79 ± 0.07
hFFA2 [4]
  pEC50 cAMP, WT: 6.35 ± 0.13
Lys^65Ala hFFA2 [5]
  inositol monophosphate production via Lys65Ala hFFA2: unable to promote inositol monophosphate production
Lys^65Ala hFFA2 [6]
  pEC50 GTPγS, K65A: 6.94 ± 0.14
Lys^65Arg hFFA2 [7]
  pEC50 cAMP, K65R: 6.47 ± 0.15
Lys^65Glu hFFA2 [8]
  pEC50 GTPγS, K65E: 6.79 ± 0.12
hFFA2 [9]
  accumulation of inositol monophosphates via hFFA2: unable to promote accumulation of inositol monophosphates
Lys^65Glu hFFA2 [10]
  inositol monophosphate production via Lys65Glu hFFA2: unable to promote inositol monophosphate production
Lys^65Ala hFFA2 [11]
  pEC50 cAMP, K65A: 6.42 ± 0.03
hFFA2 [12]
  pEC50 GTPγS, WT: 6.97 ± 0.02
